The text below walks through data of article PMC7138139 (Molecular and cellular neurosciences, 2020).

Assay [1] addresses T1, Olfr774 (Mus musculus, UniProt Q7TRI5).
T1 sequence (Q7TRI5 1-312): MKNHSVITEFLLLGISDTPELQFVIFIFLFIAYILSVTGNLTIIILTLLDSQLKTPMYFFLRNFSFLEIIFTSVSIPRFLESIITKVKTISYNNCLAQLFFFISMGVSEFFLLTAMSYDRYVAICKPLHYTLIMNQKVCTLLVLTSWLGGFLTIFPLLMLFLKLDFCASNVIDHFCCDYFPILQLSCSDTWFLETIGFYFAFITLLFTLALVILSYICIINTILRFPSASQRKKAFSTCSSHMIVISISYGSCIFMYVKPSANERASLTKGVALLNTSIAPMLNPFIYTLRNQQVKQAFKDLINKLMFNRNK
The experiment in a line: Glosensor cAMP luminescence dose-response, Hana3A cells. The assay is classed as cell-based. The settings on record: agonist.

Assay [2] addresses T2, Olfr937 (Mus musculus, UniProt Q9EQB4).
T2 sequence (Q9EQB4 1-311): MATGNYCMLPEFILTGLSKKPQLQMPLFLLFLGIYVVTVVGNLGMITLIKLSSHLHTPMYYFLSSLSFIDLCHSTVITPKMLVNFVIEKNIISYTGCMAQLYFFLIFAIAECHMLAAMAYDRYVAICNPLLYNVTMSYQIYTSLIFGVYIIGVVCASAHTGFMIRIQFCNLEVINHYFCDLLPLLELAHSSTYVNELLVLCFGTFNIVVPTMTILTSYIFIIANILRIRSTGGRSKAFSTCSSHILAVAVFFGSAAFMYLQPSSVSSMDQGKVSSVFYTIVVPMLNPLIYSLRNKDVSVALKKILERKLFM
Described as above. The assay is classed as cell-based. The settings on record: antagonist of whiskey lactone response; 316 uM.

As to `CCCCCCCCCCC=O` [undecanal], the “Glosensor cAMP luminescence dose-response, Hana3A cells” value in assay [1] is “In vitro testing confirmed that Olfr774 responded to undecanal but not to bourgeonal”.
In the case of `CC(C)(C)c1ccc(CCC=O)cc1` [bourgeonal, 3-(4-tert-butylphenyl)propanal], the “Glosensor cAMP luminescence dose-response, Hana3A cells” value in assay [2] was “bourgeonal and lyral also suppressed Olfr937 responses to whiskey lactone, with bourgeonal being more effective”.
